Values quoted from earlier work in article PMC7395068, “The evolution of strategies to minimise the risk of human drug-induced liver injury (DILI) in drug discovery and development” (Archives of Toxicology, 2020).
Read-outs that look alike come from different tables or passages of the source.

How the values were obtained:
[1] = test system: HepG2 cells, primary human hepatocytes; details: ref Garside 2014, cited from earlier work; for Cluster 1-6 +VE Assay: In vitro Assay
[2] = test system: HepG2 cells; details: In vitro Assay; ref O'Brien 2006; cited from earlier work
[3] = test system: HepG2 cells; details: In vitro Assay; ref Persson 2013; cited from earlier work
[4] = test system: human hepatocytes; details: In vitro Assay; ref Xu 2008; cited from earlier work
[5] = test system: PHH spheroids; details: In vitro Assay; ref Vorrink 2018; cited from earlier work
[6] = cited from earlier work
[7] = cited from earlier work; remark: listed apart in the source
[8] = test system: THLE or HepG2 cells, isolated mitochondria, BSEP; details: cited from earlier work
[9] = test system: THLE-Null and THLE-3A4 cells; details: In vitro Assay; ref Gustafsson 2014; cited from earlier work
[10] = test system: rBsep; details: In vitro Assay; ref Dawson 2012; cited from earlier work
[11] = test system: primary human hepatocytes, NIH3T3 fibroblasts, BSEP, CYP3A4; details: In vitro Assay; ref Schadt 2015; cited from earlier work
[12] = test system: isolated mouse liver mitochondria; details: In vitro Assay; ref Porceddu 2012; cited from earlier work

## c1ccc(CN(CC2=NCCN2)c2ccccc2)cc1 [antazoline]
[1]
  Cluster 1-6 +VE Assay: -VE

## CN(C)C(=O)Oc1cc(OC(=O)N(C)C)cc(C(O)CNC(C)(C)C)c1 (stereo not drawn) [bambuterol]
[2]
  Structural based (HCI): +VE
[3]
  Cluser analysis: -VE
  Structural based (HCI): -VE
[4]
  Structural based (HCI): -VE
[5]
  hLiMTs ATP <20 x Cmax: -VE
[6]; ref O'Brien 2006
  In vivo DILI: -VE
[6]; ref Persson 2013
  In vivo DILI: -VE
[6]; ref Vorrink 2018
  In vivo DILI: -VE
[6]; ref Xu 2008
  In vivo DILI: -VE

## OC(CCN1CCCCC1)(c1ccccc1)C1CC2C=CC1C2 (stereo not drawn) [biperiden]
[1]
  Cluster 1-6 +VE Assay: -VE

## CCCCN(CCCC)CCCOC(=O)c1ccc(N)cc1 [butacaine]
[6]; ref Garside 2014
  In vivo DILI: -VE
[1]
  Cluster 1-6 +VE Assay: +VE

## CO[C@@]1(NC(=O)C2SC(=C(C(N)=O)C(=O)O)S2)C(=O)N2C(C(=O)O)=C(CSc3nnnn3C)CS[C@@H]21 (stereo partly drawn) [cefotetan]
[7]; ref Chen 2016
  DILI +VE (5-8), DILI -VE (-4): -VE
  DILI severity category: Ambiguous DILI-concern
[6]; ref Garside 2014
  In vivo DILI: -VE
[1]
  Cluster 1-6 +VE Assay: -VE

## COc1ccc(C(Cl)=C(c2ccc(OC)cc2)c2ccc(OC)cc2)cc1 [chlorotrianisene]
[6]; ref Garside 2014
  In vivo DILI: -VE
[1]
  Cluster 1-6 +VE Assay: -VE

## O=C(O)c1cc(-c2ccccc2)nc2ccccc12 [cinchophen]
[7]; in vivo
  DILI +VE (5-8), DILI -VE (-4): +VE
  DILI severity category: vMost-DILI-Concern
[8]
  Partition Hybrid HRM Score: +VE
[6]; in vivo
  In vivo DILI: +VE
[9]
  THLE-Null: -VE
[10]
  Inhibition of rBsep cutoff<1& cmax u>.2: -VE
  Inhibition of rBsep cutoff<3: +VE

## CC(C)(Oc1ccc(C2CC2(Cl)Cl)cc1)C(=O)O (stereo not drawn) [ciprofibrate]
[11]
  Cellular toxicity (3T3 cells): -VE
  Combined Assay: -VE
  GSH adduct HML: -VE
  Hepatocyte cellular toxicity: -VE
  MitoTox 3T3: -VE
  TDI CYP3A4: -VE
  hBSEP inhibition: -VE
[2]
  Structural based (HCI): +VE
[4]
  Structural based (HCI): +VE
[6]; ref Dawson 2012
  In vivo DILI: +VE
[6]; ref Gustafsson 2014
  In vivo DILI: +VE
[6]; ref O'Brien 2006
  In vivo DILI: +VE
[6]; ref Schadt 2015
  In vivo DILI: -VE
[6]; ref Xu 2008
  In vivo DILI: +VE
[9]
  THLE-Null: -VE
  THLE-Null/3A4: -VE
[10]
  Inhibition of rBsep cutoff<1& cmax u>.2: -VE
  Inhibition of rBsep cutoff<3: +VE

## O=c1ccc2ccccc2o1 [coumarin]
[5]
  hLiMTs ATP <20 x Cmax: +VE (IC20 < 20 × Cmax.tot cut-off)
[6]; […]
  In vivo DILI: +VE
[6]; ref Porceddu 2012
  In vivo DILI: +VE
[6]; ref Vorrink 2018
  In vivo DILI: +VE
[12]
  in vitro data EC2<=1x Cmax: +VE
  in vitro data EC20<=2uM: +VE

## CCCCC[C@H](O)/C=C/[C@H]1[C@H](O)CC(=O)[C@@H]1C/C=C\CCCC(=O)O [dinoprostone]
[6]; ref Garside 2014
  In vivo DILI: -VE
[1]
  Cluster 1-6 +VE Assay: -VE

## CC(C)OC(=O)C(C)(C)Oc1ccc(C(=O)c2ccc(Cl)cc2)cc1 [fenofibrate]
[3]
  Cluser analysis: -VE
[4]
  Structural based (HCI): -VE
[8]; In vitro Assay, ref Aleo 2019
  Partition Hybrid HRM Score: +VE
  Ro2 Hybrid HRM Score: +VE
[5]
  hLiMTs ATP <20 x Cmax: +VE (IC20 < 20 × Cmax.tot cut-off)

## NS(=O)(=O)c1cc(C(=O)O)c(NCc2ccco2)cc1Cl [furosemide, reference compound]
[2]
  Structural based (HCI): -VE
[3]
  Cluser analysis: -VE
  Structural based (HCI): -VE
[9]
  THLE-Null: -VE

## COC1=CC(=O)C[C@@H](C)[C@]12Oc1c(Cl)c(OC)cc(OC)c1C2=O [griseofulvin]
[4]
  Structural based (HCI): -VE
[8]; In vitro Assay, ref Aleo 2019
  Partition Hybrid HRM Score: +VE
  Ro2 Hybrid HRM Score: +VE
[5]
  hLiMTs ATP <20 x Cmax: -VE

## C[C@]12CCC(=O)C=C1CC[C@@H]1[C@@H]2[C@@H](O)C[C@@]2(C)[C@H]1CC[C@]2(O)C(=O)CO [hydrocortisone]
[7]; in vivo
  DILI +VE (5-8), DILI -VE (-4): -VE
  DILI severity category: vNo-DILI-Concern
[4]
  Structural based (HCI): -VE
[5]
  hLiMTs ATP <20 x Cmax: -VE
[6]; in vivo
  In vivo DILI: -VE

## CC(Oc1c(Cl)cccc1Cl)C1=NCCN1 (stereo not drawn) [lofexidine]
[6]; assignment in Garside 2014, ref Garside 2014
  In vivo DILI: -VE
[1]
  Cluster 1-6 +VE Assay, In vitro Assay: -VE
